Results on 38 compounds are retold here after patent publication US9115083B2 (Simpson Biotech Co., Ltd, priority 2011, dated 2015).

pIC50: −log10 of the molar value.

The test has as its target HCV NS3/4A protease (Hepatitis C virus genotype 1a (isolate H77) (HCV), UniProt P27958). The experiment in a line: HCV protease assay (fluorimetric, FRET substrate). Type of test: biochemical. The note with it: HCV NS3/4A protease, 30 min at 37° C., triplicate; read-out: IC50 against HCV protease. An excerpt: The HCV protease assay herein was applied to investigate the HCV-protease inhibitory activity of the prepared compounds as described above. The method of the HCV protease assay was described in D. T. Phuong, C. M. Ma, M. Hattori and J. S. Jin: Inhibitory Effects of Antrodins A-E from Antrodia cinnamomea and Their Metabolites on Hepatitis C Virus Protease. Phytotherapy Research, 23, 582-584, 2009. Two micro liters of a compound solution (using DMSO as solvent) was placed in 384 well micro plate, then 8 μl of HCV NS3/4A protease ([…]) was added to the well containing a sample and the plate was agitated. Finally, 10 μL of freshly prepared substrate (Ac-Asp-Glu-Dap(QXL™520)-Glu-Glu-Abu-COO-Ala-Ser-Cys(5-FAMsp)-NH2) (100× dilution of a DMSO stock solution) was added with sequential rotational shaking. The reaction mixture was incubated for 30 min at 37° C. The fluorimetric analyses were performed on an automated TECAN GENios plate reader with excitation wavelength at 485 nm and emission 530 nm. Each test compound was carried out in triplicate. The HCV—PR inhibition (%) was calculated by using the following equation: % inhibition=(Fvehicle control−[…])×100/Fvehicle control (Where F is the fluorescence value of vehicle control or of sample minus the fluorescence of the substrate control).

Chain of HCV NS3/4A protease (P27958 1027-1657): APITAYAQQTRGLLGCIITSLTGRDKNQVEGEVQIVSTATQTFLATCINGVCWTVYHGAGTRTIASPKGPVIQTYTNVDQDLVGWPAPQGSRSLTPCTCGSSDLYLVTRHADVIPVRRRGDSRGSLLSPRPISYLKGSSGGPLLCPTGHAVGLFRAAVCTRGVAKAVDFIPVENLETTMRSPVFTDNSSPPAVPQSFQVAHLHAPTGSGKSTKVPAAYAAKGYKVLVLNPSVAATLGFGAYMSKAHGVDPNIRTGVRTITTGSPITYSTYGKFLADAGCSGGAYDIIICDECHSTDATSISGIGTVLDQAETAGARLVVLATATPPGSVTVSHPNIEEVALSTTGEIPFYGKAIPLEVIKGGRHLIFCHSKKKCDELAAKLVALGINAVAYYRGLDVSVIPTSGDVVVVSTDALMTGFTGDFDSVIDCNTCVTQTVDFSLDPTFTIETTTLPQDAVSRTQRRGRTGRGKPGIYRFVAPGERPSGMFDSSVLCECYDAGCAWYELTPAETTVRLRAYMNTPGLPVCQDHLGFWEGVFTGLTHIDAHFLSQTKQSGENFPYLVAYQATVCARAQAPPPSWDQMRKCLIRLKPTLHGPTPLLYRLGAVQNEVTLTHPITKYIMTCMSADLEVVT
Chain of HCV NS3/4A protease (P27958 1658-1711 partner): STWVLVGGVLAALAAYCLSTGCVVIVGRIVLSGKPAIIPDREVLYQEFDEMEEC

One may read the pIC50 as the IC50 on a negative log10 scale, so that one unit is a factor of ten. As to `COC(=O)C(NC(=O)C(CC(C)C)N1C(=O)C(CC(C)C)=C(c2ccc(OCC=C(C)C)cc2)C1=O)C(C)C` (centres unmarked) [Compound A1-1, Methyl 2-(2-(3-isobutyl-4-(4-(3-methylbut-2-enyloxy)phenyl)-2,5-dioxo-2,5-dihydro-1H-pyrrol-1-yl)-4-methylpentanamido)-3-methyl-butanoate], the pIC50 is below 4.00.

Regarding `CCOC(=O)C(Cc1ccc(O)cc1)NC(=O)C(CC(C)C)N1C(=O)C(CC(C)C)=C(c2ccc(OCC=C(C)C)cc2)C1=O` (centres unmarked) [Compound A1-2, Ethyl 3-(4-hydroxyphenyl)-2-(2-(3-isobutyl-4-(4-(3-methylbut-2-enyloxy)phenyl)-2,5-dioxo-2,5-dihydro-1H-1-yl)-4-methylpentanamido)propanoate], the negative logarithm of the IC50 (pIC50) is below 4.00. With `COC(=O)C(CO)NC(=O)C(CC(C)C)N1C(=O)C(CC(C)C)=C(c2ccc(OCC=C(C)C)cc2)C1=O` (centres unmarked) [Compound A1-3, Methyl 3-hydroxy-2-(2-(3-isobutyl-4-(4-(3-methylbut-2-enyloxy)-phenyl)-2,5-dioxo-2,5-dihydro-1H-pyrrol-1-yl)-4-methylpentanamido)-propanoate], the negative-log IC50 (pIC50) was below 4.00. The same measure for `COC(=O)C1CCCN1C(=O)C(CC(C)C)N1C(=O)C(CC(C)C)=C(c2ccc(OCC=C(C)C)cc2)C1=O` (centres unmarked) [Compound A1-4]: below 4.00; for `CC(C)=CCOc1ccc(C2=C(CC(C)C)C(=O)N(C(CC(C)C)C(=O)NC3CC3)C2=O)cc1` (centres unmarked) [Compound A1-6, N-Cyclopropyl-2-(3-isobutyl-4-(4-(3-methylbut-2-enyloxy)phenyl)-2,5-dioxo-2,5-dihydro-1H-pyrrol-1-yl)-4-methylpentanamide]: below 3.70. On to `CC(C)CC1C(=O)N(C(CC(C)C)C(=O)N[C@@H](Cc2ccccc2)C(=O)O)C(=O)C1c1ccc(O)cc1` (some centres unmarked) [Compound A1-7], for which the pIC50 was 4.57. The same measure for `CC(C)CC1C(=O)N(C(CC(C)C)C(=O)N[C@@H](C)C(=O)O)C(=O)C1c1ccc(O)cc1` (some centres unmarked) [Compound A1-10]: 4.80; for `COC(=O)[C@H](CC(C)C)NC(=O)C(Cc1ccccc1)N1C(=O)C(CC(C)C)=C(c2ccc(OCC=C(C)C)cc2)C1=O` (some centres unmarked) [Compound A2-1, Methyl 2-(2-(3-isobutyl-4-(4-(3-methylbut-2-enyloxy)phenyl)-2,5-dioxo-2,5-dihydro-1H-pyrrol-1-yl)-3-phenylpropanamido)-4-methylpentanoate]: below 4.00. Then `CCOC(=O)C(Cc1ccccc1)NC(=O)C(Cc1ccccc1)N1C(=O)C(CC(C)C)=C(c2ccc(OCC=C(C)C)cc2)C1=O` (centres unmarked) [Compound A2-2, Ethyl 2-(2-(3-isobutyl-4-(4-(3-methylbut-2-enyloxy)phenyl)-2,5-dioxo-2,5-dihydro-1H-pyrrol-1-yl)-3-phenylpropanamido)-3-phenylpropanoate], with 4.00; and `CCOC(=O)[C@H](Cc1ccc(O)cc1)NC(=O)C(Cc1ccccc1)N1C(=O)C(CC(C)C)=C(c2ccc(OCC=C(C)C)cc2)C1=O` (some centres unmarked) [Compound A2-3, Ethyl 3-(4-hydroxyphenyl)-2-(2-(3-isobutyl-4-(4-(3-methylbut-2-enyloxy)phenyl)-2,5-dioxo-2,5-dihydro-1H-pyrrol-1-yl)-3-phenylpropanamido)propanoate], with 4.00.

For `CC(C)CC1C(=O)N(C(Cc2ccccc2)C(=O)N[C@@H](CC(C)C)C(=O)O)C(=O)C1c1ccc(O)cc1` (some centres unmarked) [Compound A2-11], the pIC50 is 3.92. Then `CC(C)CC1C(=O)N(C(Cc2ccccc2)C(=O)N[C@@H](Cc2ccccc2)C(=O)O)C(=O)C1c1ccc(O)cc1` (some centres unmarked) [Compound A2-12], with 3.72; and `CC(C)CC1C(=O)N(C(CO)C(=O)N[C@@H](Cc2ccccc2)C(=O)O)C(=O)C1c1ccc(O)cc1` (some centres unmarked) [Compound A3-16], with 3.88.

Turning to `CC(C)=CCOc1ccc(C2=C(CC(C)C)C(=O)N(C(Cc3ccc(O)cc3)C(=O)O)C2=O)cc1` (centres unmarked) [Compound A4, 3-(4-Hydroxyphenyl)-2-(3-isobutyl-4-(4-(3-methylbut-2-enyloxy)-phenyl)-2,5-dioxo-2,5-dihydro-1H-pyrrol-1-yl)propanoic acid], the pIC50 was 4.80. Then `CSCCC(C(=O)O)N1C(=O)C(CC(C)C)=C(c2ccc(OCC=C(C)C)cc2)C1=O` (centres unmarked) [Compound A5, 2-(3-Isobutyl-4-(4-(3-methylbut-2-enyloxy)phenyl)-2,5-dioxo-2,5-dihydro-1H-pyrrol-1-yl)-4-(methylthio)butanoic acid], with 4.68; and `CC(C)=CCOc1ccc(C2=C(CC(C)C)C(=O)N(C(C(=O)O)C(C)O)C2=O)cc1` (centres unmarked) [Compound A6, 3-Hydroxy-2-(3-isobutyl-4-(4-(3-methylbut-2-enyloxy)phenyl)-2,5-dioxo-2,5-dihydro-1H-pyrrol-1-yl)butanoic acid], with 4.74.

For `CC(C)=CCOc1ccc(C2=C(CC(C)C)C(=O)N(C(C(=O)O)C(C)C)C2=O)cc1` (centres unmarked) [Compound A7, 2-(3-Isobutyl-4-(4-(3-methylbut-2-enyloxy)phenyl)-2,5-dioxo-2,5-dihydro-1H-pyrrol-1-yl)-3-methylbutanoic acid], the pIC50 was 4.63. Take `CC(C)=CCOc1ccc(C2=C(CC(C)C)C(=O)N(C(C)C(=O)O)C2=O)cc1` (centres unmarked) [Compound A8, 2-(3-Isobutyl-4-(4-(3-methylbut-2-enyloxy)phenyl)-2,5-dioxo-2,5-dihydro-1H-pyrrol-1-yl)propanoic acid]: the negative-log IC50 (pIC50) is 4.57. The same measure for `CC(C)=CCOc1ccc(C2=C(CC(C)C)C(=O)N(C(CCC(=O)O)C(=O)O)C2=O)cc1` (centres unmarked) [Compound A9, 2-(3-Isobutyl-4-(4-(3-methylbut-2-enyloxy)phenyl)-2,5-dioxo-2,5-dihydro-1H-pyrrol-1-yl)pentanedioic acid]: 4.72; for `CC(C)CC1C(=O)N(C(Cc2ccccc2)C(=O)O)C(=O)C1c1ccc(O)cc1` (centres unmarked) [Compound A11]: 4.20. The same measure for `CC(C)CC1C(=O)N(C(CO)C(=O)O)C(=O)C1c1ccc(O)cc1` (centres unmarked) [Compound A12]: 4.60; for `CC(C)CC1C(=O)N(C(C(=O)O)C(C)C)C(=O)C1c1ccc(O)cc1` (centres unmarked) [Compound A15]: 4.07. Then `CC(C)CC1C(=O)N(C(C)C(=O)O)C(=O)C1c1ccc(O)cc1` (centres unmarked) [Compound A16], with 3.77. Take `CC(C)CC1C(=O)N(C(CCOCO)C(=O)O)C(=O)C1c1ccc(O)cc1` (centres unmarked) [Compound A17]: the pIC50 was 3.98. `CC(C)=CCOc1ccc(C2=C(CC(C)C)C(=O)N(CC(O)C(=O)O)C2=O)cc1` (centres unmarked) [KA, 2-Hydroxy-3-(3-isobutyl-4-(4-(3-methylbut-2-enyloxy)phenyl)-2,5-dioxo-2,5-dihydro-1H-pyrrol-1-yl)propanoic acid]: the pIC50 is 5.06. Then `CC(C)=CCOc1ccc(C2=C(CC(C)C)C(=O)N(CC(=O)C(=O)NC(C)C(=O)OC(C)(C)C)C2=O)cc1` (centres unmarked) [KA-5-2], with 4.32; and `CC(C)CC1C(=O)N(CC(=O)C(=O)NC(C)C(=O)O)C(=O)C1c1ccc(O)cc1` (centres unmarked) [KA-5], with 4.15. The same measure for `CC(C)CC1C(=O)N(CC(O)C(=O)O)C(=O)C1c1ccc(O)cc1` (centres unmarked) [KA-t]: 3.73; for `CC(C)=CCOc1ccc(C2=C(CC(C)C)C(=O)N(CC(=O)C(N)=O)C2=O)cc1` [KAnh-1]: 3.82.

Consider `CC(C)CC1C(=O)N(CC(=O)C(N)=O)C(=O)C1c1ccc(O)cc1` (centres unmarked) [KAnh-2], for which the negative logarithm of the IC50 (pIC50) is 3.84.

For the compound `CC(C)=CCOc1ccc(C2=C(CC(C)C)C(=O)N(CCC(O)C(=O)O)C2=O)cc1` (centres unmarked) [KB, 2-Hydroxy-4-(3-isobutyl-4-(4-(3-methylbut-2-enyloxy)phenyl)-2,5-dioxo-2,5-dihydro-1H-pyrrol-1-yl)butanoic acid], the pIC50 was 4.81. The same measure for `CC(C)=CCOc1ccc(C2=C(CC(C)C)C(=O)N(CCC(=O)C(=O)NC3CC3)C2=O)cc1` [KB-1, N-Cyclopropyl-4-(3-isobutyl-4-(4-(3-methylbut-2-enyloxy)phenyl)-2,5-dioxo-2,5-dihydro-1H-pyrrol-1-yl)-2-oxobutanamide]: 4.21. Then `CC(C)=CCOc1ccc(C2=C(CC(C)C)C(=O)N(CCC(=O)C(=O)NC(C)C(=O)OC(C)(C)C)C2=O)cc1` (centres unmarked) [KB-1-2], with 4.45. In the case of `CC(C)=CCOc1ccc(C2=C(CC(C)C)C(=O)N(CCC(=O)C(=O)NC(Cc3ccccc3)C(=O)OC(C)(C)C)C2=O)cc1` (centres unmarked) [KB-2-2], the pIC50 was 4.79. `CC(C)CC1C(=O)N(CCC(=O)C(=O)NC(Cc2ccccc2)C(=O)O)C(=O)C1c1ccc(O)cc1` (centres unmarked) [KB-2]: the pIC50 is 4.00. On to `CC(C)=CCOc1ccc(C2=C(CC(C)C)C(=O)N(CCC(=O)C(N)=O)C2=O)cc1` [KBnh-1], for which the negative-log IC50 (pIC50) was 4.92.

In the case of `CC(C)CC1C(=O)N(CCC(=O)C(N)=O)C(=O)C1c1ccc(O)cc1` (centres unmarked) [KBnh-2], the pIC50 was 5.13. The same measure for `CC(C)=CCOc1ccc(C2=C(CC(C)C)C(=O)N(C(c3ccccc3)C(O)C(=O)O)C2=O)cc1` (centres unmarked) [KC, 2-Hydroxy-3-(3-isobutyl-4-(4-(3-methylbut-2-enyloxy)phenyl)-2,5-dioxo-2,5-dihydro-1H-pyrrol-1-yl)-3-phenylpropanoic acid]: 5.30.
